Measurements from patent publication US6503882B2, “Treatment of HIV” (Trustees of Tufts College, priority 1997, dated 2003).

How the values were obtained:
[1] = system: PBMC from HIV-infected patients; test: Proliferation of PBMC from HIV-infected individuals in vitro, 3H thymidine incorporation; assay type: cell-based, human; conditions: for stimulation of proliferation (incorporation of 3H thymidine, cpm): very low doses, FIG. 1
Procedure: Peripheral blood mononuclear cells (PBMC) were obtained by standard methods from HIV-infected individuals, and from uninfected individuals. Varying dosages of KBP or VBP were contacted with the PBMC in vitro, and stimulation of proliferation was measured by incorporation of ^3H thymidine (cpm).

[2] = relatively low doses (10^−7M), FIG. 2

| SMILES | proliferation of PBMC of HIV-infected patients ([1]; higher doses (10^−4M), FIG. 2) | proliferation of PBMC of HIV-infected patients [1, 2] | stimulation of proliferation (incorporation of 3H thymidine, cpm) [1] | stimulation of PBMC of HIV-infected patients ([1]; concentrations of 10^−6, FIG. 2) | cytotoxicity (T-cells) | cytotoxicity to T-cells (T-cells) | toxicity observed in vitro (T-cells) |
| --- | --- | --- | --- | --- | --- | --- | --- |
| NCCCC[C@H](N)C(=O)N1CCC[C@H]1B(O)O [Lys-boroPro] | did not have this effect | caused proliferation | stimulated proliferation |  |  |  |  |
| CC(C)[C@H](N)C(=O)N1CCC[C@H]1B(O)O [Val-boroPro] | did not have this effect | caused proliferation | stimulated proliferation | there was stimulation | approximately 50% | highly cytotoxic | greater than 80% |
